As a reminder, the IC50 is the concentration needed to halve the response being measured.

Here are results for ten compounds from ChEMBL document CHEMBL2016566, “Melanogenesis inhibitory bisabolane-type sesquiterpenoids from the roots of Angelica koreana” (Bioorg Med Chem Lett, 2012).

Values after ≈ are worked out from the molar mass of the structure shown.

Series [1] relates to B16. The series is described as follows: Cytotoxicity against mouse B16 cells assessed as cell viability. The class given is cell-based.
Series [2] has as its system B16. The series is described as follows: Inhibition of alpha-MSH-stimulated melanogenesis in mouse B16 cells assessed as melanin release after 72 hrs. The format is functional, cell-based. The following applies: for IC50: B16, 72 h.

Consider `CO[C@@]1(C(C=C(C)C)OC(C=C(C)C)[C@]2(O)O[C@H]3CC(C)=CC(=O)[C@H]3[C@@]2(C)O)O[C@H]2CC(C)=CC(=O)[C@H]2[C@@]1(C)O` (some centres undefined) [OSTERIVOLONE C], for which, in series [1], the Activity entry is “Non-toxic”. For the same compound, in series [2], the inhibition result is “Dose-dependent effect” and the IC50 was found to be 4.5 µg/mL (≈ 8.03 µM).
Regarding `O=c1ccc2cc3ccoc3cc2o1` [PSORALEN], in series [2], the IC50 was > 200 µg/mL.
On to `COC(C)(C)/C=C/[C@]1(OC)O[C@H]2CC(C)=CC(=O)[C@H]2[C@@]1(C)O` [OSTERIVOLONE B], for which the Activity result in series [1] is reported as “Non-toxic”. In addition, in series [2], the inhibition result was “Dose-dependent effect” and the IC50 is 5.6 µg/mL (≈ 18 µM).
For the compound `C=C[C@@H](O)C#CC#C[C@@H](O)/C=C\CCCCCCC` [FALCARINDIOL], the Activity entry in series [1] is “Non-toxic”. For the same compound, in series [2], the inhibition result was “Dose-dependent effect” and the IC50 was 2.9 µg/mL (≈ 11.1 µM).
With `O=c1cc(CO)occ1O` [KOJIC ACID], the IC50 in series [2] was determined as 5.5 µg/mL (≈ 38.7 µM).
`OC[C@H]1O[C@@H](Oc2ccc(O)cc2)[C@H](O)[C@@H](O)[C@@H]1O` [ARBUTIN]: the IC50 in series [2] was found to be 67.9 µg/mL (≈ 249 µM).
On to `CC(C)=C/C=C1\O[C@H]2C[C@](C)(O)CC(=O)[C@H]2[C@@]1(C)O` [OSTERIVOLONE D], for which the Activity result in series [1] is given as “Non-toxic”. In series [2], the inhibition entry was “Dose-dependent effect” and the IC50 worked out at 1.9 µg/mL (≈ 7.13 µM).
In the case of `CO[C@@]1(/C=C/C(C)(C)O)O[C@H]2CC(C)=CC(=O)[C@H]2[C@@]1(C)O` [OSTERIVOLONE A], the Activity entry in series [1] is “Non-toxic”. In series [2], the inhibition entry is “Dose-dependent effect” and the IC50 turned out to be 1.1 µg/mL (≈ 3.71 µM).
For the compound `CC(C)=C/C=C1\O[C@@H]2CC(C)=CC(=O)[C@@H]2[C@]1(C)O` [BISABOLANGELONE], in series [1], the Activity result is “Non-toxic”. In series [2], the inhibition entry is “Dose-dependent effect” and the IC50 is 5.3 µg/mL (≈ 21.3 µM).
Take `C/C=C(/C)C(=O)O[C@H]1Cc2cc3ccc(=O)oc3cc2OC1(C)C` [DECURSINOL ANGELATE]: the Activity entry in series [1] is recorded as “Non-toxic”. In series [2], the inhibition result is “Dose-dependent effect” and the IC50 worked out at 5.8 µg/mL (≈ 17.7 µM).
